Data taken from US6197806A, “Eliminating agent for activated oxygen and free radicals” (Nippon Zoki Pharmaceutical Co., Ltd., priority 1995, dated 2001).

Assay: Measurement of ability for eliminating hydroxyl radicals (ESR spin trapping method, Fenton's reaction, DMPO)
Conditions: 1 mM of DMPO; DMPO-OH ESR signal; phosphate buffer pH 7.8; room temperature; read-out: Concentration of Test Substance at 50% Inhibition of Signal Intensity, IC50
Method: Ability of the test substances for eliminating hydroxyl radicals was measured using an ESR spin trapping method which is frequently used for the detection of hydroxyl radicals. Generation of hydroxyl radicals was carried out using a Fenton's reaction in which hydroxyl radicals are generated by a reaction of divalent iron chelated with DTPA (diethylenediamine-pentaacetic acid) with hydrogen peroxide. […] When a test substance having an eliminating action for hydroxyl radicals is present in this reaction system, the above characteristic signal is inhibited and, therefore, the ability for eliminating hydroxyl radicals can be measured using that signal inhibition as an index.
Thus, a solution of a mixture of 1 mM of ferrous sulfate and DTPA dissolved in 100 mM of a phosphate buffer (pH 7.8) was charged in a test tube. Then, 50 μl of a sample solution containing the test substance or hydantoin compound of the invention and 20 μl of 1 mM or 2 mM of DMPO were added. Finally, 75 μl of 1 mM of hydrogen peroxide solution was added to the resulting mixture to initiate the reaction. Hydrogen peroxide solution was prepared immediately before each of the experiments and the reaction was conducted at room temperature.
An ESR spectrum in this reaction system was measured by conventional means. […]

IC50: 1000 µM
SMILES: CN1C(=O)NC(=O)C1O (stereo not shown) [Compound 21, 5-Hydroxy-1-methylhydantoin]
